US20130018360A1 (priority 2011, published 2013)

System: IOP (intra-ocular pressure)
Experiment: Clinical studies: change from baseline IOP after 20 nL nanodoses of bimatoprost
Type: in vivo, humans
Details: ~1 μg BP dosed as 20 nL on Days 0-3; IOP collected ~24 hours post-dose
Method: These IOP (intra-ocular pressure) data were collected ˜24 hours post-dose on each day. […] The Day 5 data shown in FIG. 1 below are the change from baseline IOP values following application of Lumigan.

CCNC(=O)CCC/C=C\C[C@@H]1[C@@H](/C=C/[C@@H](O)CCc2ccccc2)[C@H](O)C[C@@H]1O [BP, bimatoprost]
IOP-lowering effect (change from baseline IOP): IOP-lowering effect can occur
